# Results from patent US20090023806A1, “ALUMINUM-STORAGE DISEASE IMPROVING AGENT” (AJINOMOTO CO. INC, priority 2006, published 2009).
# What was measured:
# [1] = Elimination of aluminum accumulated in rat thigh bones by repeated intravenous citric acid; assay type: in vivo; settings: aluminum-loaded male rats, 0.75% citric acid solution i.v. 4 hours, three times a week for 4 weeks
# Description: After aluminum accumulations were made in rat tissues, citric acid as an aluminum complexing agent was administered intravenously repeatedly to examine whether citric acid would eliminate the aluminum accumulated in the tissues.
# Aluminum was administered to male rats intraperitoneally repeatedly once a day for 6 weeks at 2 mg/kg. Then, the rats were cannulated in the jugular vein.
# From the jugular cannula, 0.75% citric acid solution was administered repeatedly taking the same dialysis time and frequency as in human; that is, for 4 hours continuously intravenously three times a week for 4 weeks.
# For the control group, physiological saline was administered in the same means. Each group had 4 to 6 rats.
# After the 4-week administration, thigh bones were collected from the rats to compare the aluminum levels in the thigh bones of both groups using the ratios of the aluminum peak area analyzed by the HPLC method against the peak area of internal standard substance as an indicator.
# [2] = Protein-binding rate of aluminum in rat plasma by ultrafiltration, with citric acid added; assay type: in vitro ADME; settings: aluminum 50 μg/L, citric acid final concentration raised by 3 mg/dL, 37° C. 60 minutes, no citric acid: 23.4±10.0%
# Description: Whether aluminum combined to proteins chelates with citric acid and is dissociated from the proteins in rat plasma was examined.
# A used indicator was the protein-binding rates (by ultrafiltration method) when citric acid was added and when not added.
# Aluminum was added to rat blood plasma to make the concentration 50 μg/L, and citric acid was added there to make the final concentration rise by 3 mg/dL. Then, it was incubated at 37° C. for 60 minutes. After that, the solution was centrifuged in a centrifuge (Centrifree) to obtain about 100 μL of filtrate. The aluminum concentrations of the added sample, the supernatant and the filtrate were measured respectively by the HPLC method (Chromatoracer Al; SHINO-TEST Corp.) to calculate the protein-binding rates.
# [3] = Citric acid concentration in patient blood plasma during dialysis with citric acid-containing dialysate; assay type: in vivo, human; settings: 1.7 mEq/L of citric acid added to a dialysate during a dialysis treatment
# Description: The present invention provides a dialysate comprising aluminum complexing agents. Preferably, the aluminum complexing agent is citric acid. […] Meanwhile, it had been confirmed that, when 1.7 mEq/L of citric acid had been added to a dialysate during a dialysis treatment, the citric acid concentration in the patient blood plasma had risen by about 3 mg/dL. In the following examples, how this phenomenon effects on the aluminum kinetics in vivo was examined.
smiles,measurement,setting,value
O=C(O)CC(O)(CC(=O)O)C(=O)O [citric acid],thighbone aluminum levels compared with control group,[1]; P<0.05 Student's t-test,statistically significantly lower
same,thigh bone aluminum level: ratio of aluminum peak area (HPLC) against peak area of internal standard,"[1]; saline control 4.46±0.52, mean±S.D.",3.62±0.27
same,free-aluminum percentage,[2],35.5±0.4%
same,rise of citric acid concentration in patient blood plasma,[3],about 3 mg/dL
